Measurements: ChEMBL document CHEMBL1201862, “PubChem BioAssay data set” (2004)
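All cell lines were grown in 96-well plates and treated with compound for 48 hours. At the GI50, growth is halved.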 Calls of active or inactive are those of the source. Cut-off read from the data, not from the text of the source: active = GI50 up to about 1.1 µM and inactive = higher.

What was measured:
Assay in all cases: inhibition of tumour cell growth, NCI panel, 48 h
[1] = tested on: HCT-116
[2] = tested on: SK-OV-3
[3] = tested on: SF-539
[4] = tested on: COLO 205
[5] = tested on: A549
[6] = tested on: SK-MEL-5
[7] = tested on: A498
[8] = tested on: UO-31
[9] = tested on: Malme-3M
[10] = tested on: K562
[11] = tested on: IGROV-1
[12] = tested on: DMS-114
[13] = tested on: HL-60
[14] = tested on: RPMI-8226
[15] = tested on: MCF7
[16] = tested on: OVCAR-5
[17] = tested on: HOP-92
[18] = tested on: NCI-H522
[19] = tested on: SW-620
[20] = tested on: SN12C
[21] = tested on: SK-MEL-2
[22] = tested on: XF498
[23] = tested on: LOX IMVI
[24] = tested on: U-251
[25] = tested on: UACC-257
[26] = tested on: SNB-19
[27] = tested on: DLD-1
[28] = tested on: NCI-H23
[29] = tested on: RXF 393
[30] = tested on: HOP-18
[31] = tested on: SNB-75
[32] = tested on: HT-29
[33] = tested on: OVCAR-4
[34] = tested on: SF-295
[35] = tested on: SF-268
[36] = tested on: HOP-62
[37] = tested on: HCC 2998
[38] = tested on: HCT-15
[39] = tested on: M19-MEL
[40] = tested on: MOLT-4
[41] = tested on: NCI/ADR-RES
[42] = tested on: NCI-H226
[43] = tested on: EKVX
[44] = tested on: CAKI-1
[45] = tested on: SNB-78
[46] = tested on: KM12
[47] = tested on: OVCAR-3
[48] = tested on: CCRF-CEM
[49] = tested on: DMS-273
[50] = tested on: NCI-H460
[51] = tested on: OVCAR-8
[52] = tested on: KM-20L2
[53] = tested on: UACC-62
[54] = tested on: SK-MEL-28
[55] = tested on: TK-10
[56] = tested on: ACHN
[57] = tested on: M14
[58] = tested on: SR
[59] = tested on: 786-0

`CC(C)[C@](O)(C(=O)OCC1=CCN2CC[C@@H](O)[C@@H]12)[C@H](C)O` was tested, and the GI50 [1] was > 375 µM (inactive), the GI50 [2] was > 375 µM (inactive) and the GI50 [3] was > 375 µM (inactive). For the same compound, the GI50 [4] was > 375 µM (inactive), the GI50 [5] was > 375 µM (inactive) and the GI50 [6] was > 80.7 µM (inactive). For the same compound, the GI50 [7] was > 375 µM (inactive), the GI50 [8] was > 375 µM (inactive) and the GI50 [9] was > 375 µM (inactive). For the same compound, the GI50 [10] was > 375 µM (inactive), the GI50 [11] was > 308 µM (inactive) and the GI50 [12] was 368 µM (inactive). For the same compound, the GI50 [13] was > 375 µM (inactive), the GI50 [14] was > 375 µM (inactive) and the GI50 [15] was > 375 µM (inactive). The GI50 [16] was > 278 µM (inactive), the GI50 [17] was > 375 µM (inactive) and the GI50 [18] was 59.4 µM (inactive). For the same compound, the GI50 [19] was > 237 µM (inactive), the GI50 [20] was > 375 µM (inactive) and the GI50 [21] was > 375 µM (inactive). The GI50 [22] was > 375 µM (inactive), the GI50 [23] was > 174 µM (inactive) and the GI50 [24] was > 375 µM (inactive). The GI50 [25] was > 375 µM (inactive), the GI50 [26] was > 375 µM (inactive) and the GI50 [27] was > 375 µM (inactive). For the same compound, the GI50 [28] was > 375 µM (inactive), the GI50 [29] was > 375 µM (inactive) and the GI50 [30] was > 375 µM (inactive). The GI50 [31] was > 375 µM (inactive), the GI50 [32] was > 375 µM (inactive) and the GI50 [33] was > 375 µM (inactive). For the same compound, the GI50 [34] was > 375 µM (inactive), the GI50 [35] was > 375 µM (inactive) and the GI50 [36] was > 335 µM (inactive). The GI50 [37] was > 375 µM (inactive), the GI50 [38] was over 375 µM and the GI50 [39] was > 255 µM (inactive). The GI50 [40] was > 375 µM (inactive), the GI50 [41] was > 375 µM (inactive) and the GI50 [42] was > 375 µM (inactive). For the same compound, the GI50 [43] was > 375 µM (inactive), the GI50 [44] was > 375 µM (inactive) and the GI50 [45] was > 375 µM (inactive). For the same compound, the GI50 [46] was > 375 µM (inactive), the GI50 [47] was > 375 µM (inactive) and the GI50 [48] was > 375 µM (inactive). For the same compound, the GI50 [49] was > 375 µM (inactive), the GI50 [50] was > 367 µM (inactive) and the GI50 [51] was > 375 µM (inactive). The GI50 [52] was > 375 µM (inactive), the GI50 [53] was > 375 µM (inactive) and the GI50 [54] was > 375 µM (inactive).

With `Cn1cnc([N+](=O)[O-])c1Sc1nccn1-c1ccccc1` the GI50 [1] was 38 µM (inactive), the GI50 [2] was > 100 µM (inactive) and the GI50 [3] was 68.2 µM (inactive). The GI50 [4] was 33.9 µM (inactive), the GI50 [5] was > 100 µM (inactive) and the GI50 [55] was > 100 µM (inactive). The GI50 [6] was 69.2 µM (inactive), the GI50 [7] was > 100 µM (inactive) and the GI50 [8] was 22.3 µM (inactive). For the same compound, the GI50 [9] was 17.5 µM (inactive), the GI50 [10] was 52.4 µM (inactive) and the GI50 [11] was 43.1 µM (inactive). The GI50 [12] was 29.4 µM (inactive), the GI50 [14] was 51.3 µM (inactive) and the GI50 [56] was 47.6 µM (inactive). The GI50 [16] was > 100 µM (inactive), the GI50 [17] was 22.5 µM (inactive) and the GI50 [18] was 11.6 µM (inactive). The GI50 [19] was 42.9 µM (inactive), the GI50 [20] was 42.3 µM (inactive) and the GI50 [21] was 21.4 µM (inactive). For the same compound, the GI50 [57] was 44.9 µM (inactive), the GI50 [22] was 31.1 µM (inactive) and the GI50 [23] was 16.8 µM (inactive). The GI50 [24] was 49.8 µM (inactive), the GI50 [25] was 37.6 µM (inactive) and the GI50 [26] was > 100 µM (inactive). The GI50 [27] was 33.3 µM (inactive), the GI50 [28] was 29.9 µM (inactive) and the GI50 [30] was 8.85 µM (inactive). The GI50 [31] was 71.9 µM (inactive), the GI50 [32] was 61.1 µM (inactive) and the GI50 [33] was 44.6 µM (inactive). The GI50 [34] was > 100 µM (inactive), the GI50 [35] was 66.5 µM (inactive) and the GI50 [36] was > 100 µM (inactive). For the same compound, the GI50 [37] was > 100 µM (inactive), the GI50 [58] was 21.2 µM (inactive) and the GI50 [39] was 51.8 µM (inactive). The GI50 [40] was 21.5 µM (inactive), the GI50 [42] was 33.7 µM (inactive) and the GI50 [59] was > 100 µM (inactive). The GI50 [43] was 44.7 µM (inactive), the GI50 [44] was 97.9 µM (inactive) and the GI50 [45] was 26.3 µM (inactive). For the same compound, the GI50 [46] was > 100 µM (inactive), the GI50 [47] was 50.5 µM (inactive) and the GI50 [48] was 36.3 µM (inactive). For the same compound, the GI50 [49] was 63.5 µM (inactive), the GI50 [50] was 41.4 µM (inactive) and the GI50 [51] was 43.1 µM (inactive). For the same compound, the GI50 [52] was > 100 µM (inactive), the GI50 [53] was 35.2 µM (inactive) and the GI50 [54] was 37.8 µM (inactive).
